Patent US10287276B2, “Heteroaryl-1,2,4-triazole and heteroaryl-tetrazole compounds for controlling ectoparasites” (Elanco Tiergesundheit AG, priority 2016, dated 2019)

Tests used:
[1] = test system: Ctenocephalides Felis (Cat Flea); assay: Activity in vitro against Ctenocephalides felis (cat flea), Assay A; details: Ctenocephalides felis; at 100 ppm; adult fleas fed on treated blood for 24 h; dead fleas counted; read-out: efficacy (EC80)
Protocol: Activity In Vitro Against Ctenocephalides Felis (Cat Flea)—Assay A
A mixed adult population of fleas is placed in a suitably formatted 96-well plate allowing fleas to access and feed on treated blood via an artificial feeding system. Fleas are fed on treated blood for 24 h, after which the compound effect is recorded. Insecticidal activity is determined on the basis of the number of dead fleas recovered from the feeding system.

[2] = test system: Lucilla Cuprina (Australian sheep blowfly); assay: Activity in vitro against Lucilla cuprina (Australian sheep blowfly), Assay A; details: Lucilia cuprina, 96 h; at 32 ppm; eggs on agar-based medium, 4 days at 28° C. and 60% relative humidity; read-out: efficacy (EC80)
Protocol: Activity in vitro against Lucilla Cuprina (Australian sheep blowfly)—Assay A
Freshly laid blowfly eggs are used to seed a suitably formatted microplate containing the test substances to be evaluated for antiparasitic activity. Each compound is tested by serial dilution in order to determine its minimum efficacy dose. The test compounds are embedded in an agar-based nutritive medium allowing the full development of the eggs into 3rd instar larvae. The incubation lasts for 4 days at 28° C. and 60% relative humidity. Egg-hatching and ensuing larval development are also recorded to identify a possible growth-regulating activity.

[3] = test system: Rhipicephalus sanguineus (Dog Tick); assay: Activity in vitro against Rhipicephalus sanguineus (dog tick), Assay A, contact test; details: Rhipicephalus sanguineus, 168 h, at 100 ppm, adult ticks, 28° C. and 80% relative humidity for 7 days, read-out: efficacy (EC80)
Protocol: Activity In Vitro Against Rhipicephalus sanguineus (Dog Tick)—Assay A
A contact test is performed by pre-coating microplate with serial dilution of compound allowing evaluating anti-parasitic activity by contact against ticks. A mixed adult tick population is then distributed to each well of the plate and incubated at 28° C. and 80% relative humidity for 7 days, during which the effect of the test compound is monitored. Acaricidal activity is confirmed if and when adult ticks are dead.

[4] = test system: Engorged Female Rhipicephalus microplus (Cattle Tick); assay: Activity in vitro against engorged female Rhipicephalus microplus (cattle tick), contact test; details: 672 h, organophosphorous-resistant Ultimo strain, evaluation 28 days later on mortality, oviposition and hatched larvae, read-out: efficacy (EC80)
Protocol: Activity In Vitro Against Engorged Female Rhipicephalus microplus (Cattle Tick)
A contact test is performed by pre-coating 6-well microplates with serial dilution of the compound to be evaluated for anti-parasitic activity. 10 engorged female ticks of the organophosphorous-resistant Ultimo strain are distributed to each well in triplicates. Plates are then incubated at 28° C. and 80% relative humidity. Evaluation takes place 28 days later based on mortality, oviposition and hatched larvae. […] Activity In Vivo Against Rhipicephalus sanguineus Nymphs on Mongolian Gerbils (Meriones unguiculatus) (Spray Application)

[5] = test system: Lice (Polyplax serrata); assay: Activity in vivo against lice (Polyplax serrata) in mice (topical); details: pour-on application, live lice on day +4 and +14, Henderson & Tilton formula, read-out: efficacy (EC90)
Protocol: Activity In Vivo Against Lice (Polyplax serrata) in Mice (Topical) Mice naturally infected with P. serrata are treated with the formulated test compound on day 0 by pour-on application. On day +4 and +14, efficacy is evaluated by counting the number of live lice under a binocular. Efficacy at the two time points is expressed as a comparison of lice numbers counted on the same mouse before treatment, using the Henderson & Tilton formula, taking also into account lice numbers found on mice treated with the empty formulation (placebo group): [formula] n=number of lice, T=treated group, Co=control/placebo group.

Row | Compound | pest or weed control at 100 ppm [1] [%] | pest or weed control at 32 ppm [2] [%] | pest or weed control at 100 ppm [3] [%] | pest or weed control at 200 ppm [4] [%] | inhibition in vivo at 32 mg/kg [5] [%]
1 | CC(c1ncnn1-c1ccccn1)N(CC1CC1)C(=O)c1cc(Cl)cc(Cl)c1 (stereo not shown) [Example 2, 3,5-Dichloro-N-(cyclopropylmethyl)-N-[1-[2-(2-pyridyl)-1,2,4-triazol-3-yl]ethyl]benzamide] | > 80 | > 80 | > 80 | > 80 | –
2 | CCCN(C(=O)c1cc(Cl)cc(Cl)c1)C(C)c1ncnn1-c1ccccn1 (stereo not shown) [Example 3] | > 80 | > 80 | > 80 | > 80 | –
3 | CC(c1ncnn1-c1ccccn1)N(CC1CC1)C(=O)c1cccc(OC(F)(F)F)c1 (stereo not shown) [Example 4, N-(Cyclopropylmethyl)-N-[1-[2-(2-pyridyl)-1,2,4-triazol-3-yl]ethyl]-3-(trifluoromethoxy)benzamide] | > 80 | > 80 | > 80 | > 80 | –
4 | CC(c1ncnn1-c1ccccn1)N(Cc1cccc(Cl)c1)C(=O)c1cccc(C#N)c1 (stereo not shown) [Example 5, N-[(3-Chlorophenyl)methyl]-3-cyano-N-[1-[2-(2-pyridyl)-1,2,4-triazol-3-yl]ethyl]benzamide] | > 80 | – | – | – | –
5 | CC(c1ncnn1-c1ccccn1)N(CC1CC1)C(=O)c1cc(Cl)cc(C(F)(F)F)c1 (stereo not shown) [Example 6, 3-Chloro-N-(cyclopropylmethyl)-N-[1-[2-(2-pyridyl)-1,2,4-triazol-3-yl]ethyl]-5-(trifluoromethyl)benzamide] | > 80 | > 80 | > 80 | > 80 | –
6 | C#CCN(C(=O)c1cc(Cl)cc(C(F)(F)F)c1)C(C)c1ncnn1-c1ccccn1 (stereo not shown) [Example 7, 3-Chloro-N-prop-2-ynyl-N-[1-[2-(2-pyridyl)-1,2,4-triazol-3-yl]ethyl]-5-(trifluoromethyl)benzamide] | > 80 | > 80 | – | > 80 | > 90
7 | CC(c1ncnn1-c1ccccn1)N(CC1COC1)C(=O)c1cc(C(F)(F)F)cc(C(F)(F)F)c1 (stereo not shown) [Example 13, N-(Oxetan-3-ylmethyl)-N-[1-[2-(2-pyridyl)-1,2,4-triazol-3-yl]ethyl]-3,5-bis(trifluoromethyl)benzamide] | > 80 | > 80 | > 80 | – | –
8 | CC(c1ncnn1-c1ccccn1)N(CC1CC1(Cl)Cl)C(=O)c1cc(C(F)(F)F)cc(C(F)(F)F)c1 (stereo not shown) [Example 17, N-[(2,2-Dichlorocyclopropyl)methyl]-N-[1-[2-(2-pyridyl)-1,2,4-triazol-3-yl]ethyl]-3,5-bis(trifluoromethyl)benzamide] | > 80 | > 80 | – | > 80 | > 90
9 | CC(c1ncnn1-c1ncccn1)N(CCCF)C(=O)c1cc(C(F)(F)F)cc(C(F)(F)F)c1 (stereo not shown) [Example 21, N-(3-Fluoropropyl)-N-[1-(2-pyrimidin-2-yl-1,2,4-triazol-3-yl)ethyl]-3,5-bis(trifluoromethyl)benzamide] | > 80 | > 80 | – | > 80 | > 90
10 | CC(c1ncnn1-c1ncccn1)N(CCF)C(=O)c1cc(Cl)cc(OC(F)(F)F)c1 (stereo not shown) [Example 22, 3-Chloro-N-(2-fluoroethyl)-N-[1-(2-pyrimidin-2-yl-1,2,4-triazol-3-yl)ethyl]-5-(trifluoromethoxy)benzamide] | > 80 | > 80 | – | > 80 | –
11 | CC(c1ncnn1-c1ncccn1)N(CCCF)C(=O)c1cc(Cl)cc(OC(F)(F)F)c1 (stereo not shown) [Example 25, 3-Chloro-N-(3-fluoropropyl)-N-[1-(2-pyrimidin-2-yl-1,2,4-triazol-3-yl)ethyl]-5-(trifluoromethoxy)benzamide] | > 80 | > 80 | – | > 80 | > 90
12 | CC(c1ncnn1-c1ncccn1)N(CCC(F)(F)F)C(=O)c1cc(Cl)cc(OC(F)(F)F)c1 (stereo not shown) [Example 27, 3-Chloro-N-[1-(2-pyrimidin-2-yl-1,2,4-triazol-3-yl)ethyl]-5-(trifluoromethoxy)-N-(3,3,3-trifluoropropyl)benzamide] | > 80 | > 80 | > 80 | – | > 90
13 | CC(c1ncnn1-c1ncccn1)N(CCF)C(=O)c1cncc(C(F)(F)F)c1 (stereo not shown) [Example 30, N-(2-Fluoroethyl)-N-[1-(2-pyrimidin-2-yl-1,2,4-triazol-3-yl)ethyl]-5-(trifluoromethyl)pyridine-3-carboxamide] | > 80 | > 80 | > 80 | – | > 90
14 | C#CCN(C(=O)c1cncc(C(F)(F)F)c1)C(C)c1ncnn1-c1ncccn1 (stereo not shown) [Example 32, N-Prop-2-ynyl-N-[1-(2-pyrimidin-2-yl-1,2,4-triazol-3-yl)ethyl]-5-(trifluoromethyl)pyridine-3-carboxamide] | > 80 | > 80 | > 80 | – | –
15 | CC(c1nnnn1-c1ncccn1)N(CC1CC1)C(=O)c1cc(C(F)(F)F)cc(C(F)(F)F)c1 (stereo not shown) [Example 33, N-(Cyclopropylmethyl)-N-[1-(1-pyrimidin-2-yltetrazol-5-yl)ethyl]-3,5-bis(trifluoromethyl)benzamide] | – | > 80 | – | – | –
16 | Cc1nc(C(C)N(CC2CC2)C(=O)c2cccc(C#N)c2)n(-c2ccccn2)n1 (stereo not shown) [Example 34, 3-Cyano-N-(cyclopropylmethyl)-N-[1-[5-methyl-2-(2-pyridyl)-1,2,4-triazol-3-yl]ethyl]benzamide] | > 80 | – | > 80 | – | –
17 | CC(CN(CC1CC1)C(=O)c1cc(C(F)(F)F)cc(C(F)(F)F)c1)c1ncnn1-c1ccccn1 (stereo not shown) [Example 42, 3-(Cyclopropylmethyl)-N-[2-[2-(2-pyridyl)-1,2,4-triazol-3-yl]propyl]-3,5-bis(trifluoromethyl)benzamide] | > 80 | > 80 | > 80 | – | –
18 | C#CCN(C(=O)c1cncc(C(F)(F)F)c1)[C@@H](C)c1ncnn1-c1ncccn1 [Example 43, N-Prop-2-ynyl-N-[(1S)-1-(2-pyrimidin-2-yl-1,2,4-triazol-3-yl)ethyl]-5-(trifluoromethyl)pyridine-3-carboxamide] | > 80 | > 80 | > 80 | – | –
19 | C#CCN(C(=O)c1cc(C(F)(F)F)cc(C(F)(F)F)c1)[C@@H](C)c1ncnn1-c1ncccn1 [Example 46, N-Prop-2-ynyl-N-[(1S)-1-(2-pyrimidin-2-yl-1,2,4-triazol-3-yl)ethyl]-3,5-bis(trifluoromethyl)benzamide] | > 80 | > 80 | – | > 80 | –
20 | CC(c1ncnn1-c1ccccn1)N(CC1CC1)C(=S)c1cccc(C#N)c1 (stereo not shown) [Example 47, 3-Cyano-N-(cyclopropylmethyl)-N-[1-[2-(2-pyridyl)-1,2,4-triazol-3-yl]ethyl]benzenecarbothioamide] | > 80 | – | > 80 | – | –
